The record followed here is patent US12398143B2, “Imidazopyrazine derivatives and the use thereof as medicament” (Boehringer Ingelheim International GmbH, priority 2019, dated 2025).

For one data set, the target named is T1, NMDA NR1/NR2B receptor (Homo sapiens, UniProt Q05586+Q13224).
T1 construct: host or cells: HEK293, tetracycline-inducible
The experiment in a line: NMDA NR1/NR2B FLIPR calcium assay in HEK293 cells. The data set is classed as cell-based. The conditions noted are these: HEK293 with tetracyclin-inducible NR1/NR2B; 20 μM glycine/1 μM glutamate; compounds of the invention; read-out: IC50 (in vitro affinity as obtained in the FLIPR assay). As to the method:
A human HEK293 cell line with tetracyclin-inducible expression of NMDA NR1/NR2B receptor was used as a test system for compound efficacy and potency. The cell line was purchased from ChanTest, Catalog #CT6121. Compound activity was determined by measuring the effect of compounds on intracellular calcium concentration induced by glycine/glutamate agonism in a FLIPRtetra system (Molecular Devices).
The cells were obtained as frozen cells in cryo-vials and stored until use at −150° C. Cells were grown in culture medium (DMEM/F12, 10% FBS, 5 μg/mL Blasticidin, 150 μg/mL Zeozin, 500 μg/mL Geneticin). […] For sub-culturing the cells were detached from flasks by Versene. For the assay, cells were detached, washed twice with induction medium (DMEM/F12 without glutamine, 10% FBS, 2 μg/mL Tetracycline, 2 mM Ketamine) and seeded to 384 well pure coat amine plates (BD 359324, 50000 cells per well in 50 μl) 48 h prior to assay in induction medium.
The test compounds were dissolved in 100% DMSO at a concentration of 10 mM and in a first step diluted in DMSO to a concentration of 5 mM, followed by serial dilution steps in 100% DMSO. Dilution factor and number of dilution steps may vary according to needs. Typically 8 different concentrations by 1:5 dilutions were prepared in duplicate, further intermediate dilutions (1:37.5) of the substances were carried out with aqueous assay buffer (137 mM NaCl, 4 mM KCl, 1.8 mM CaCl, 10 mM HEPES, 10 mM Glucose, pH 7,4) resulting in a compound concentration 3 times above the final test concentration and DMSO at 2.7% resulting in 0.9% final DMSO concentration in the assay.
At the assay day cells were washed 3× with assay buffer, 10 μL buffer remained in the wells after washing. 10 μL Ca kit loading buffer (AAT Bioquest) was added to the cells and the plates were incubated with lid for 60 minutes at r.t. 20 μl assay buffer containing 60 μM glycine (20 μM final) and 3 μM glutamate (1 μM final) was added to column 1-23. Fluorescence (indicating the calcium influx as a result of the NR1/NR2B ion channel activation) was read on the FLIPRtetra device for 60 seconds to monitor the glutamate induced effects. After 2 minutes 20 μL of compound or controls (row 1-22) in assay buffer were carefully added to the wells. […] The average of 2 measurements at 5 minutes and 5 min 10 seconds after compound addition is calculated and further used for IC50 calculations. Each assay microtiter plate contained wells (in column 23 or 24) with DMSO controls instead of compound as controls for glycine/glutamate induced fluorescence (high controls) and wells with 1 μM of a reference NR2b NAM as low controls (Compound 22; reference: Layton, Mark E et al, ACS Chemical Neuroscience 2011, 2(7), 352-362).
The output file of the reader contains the well number and measured average fluorescence units. For data evaluation and calculation, the measurement of the low control was set as 0% control and the measurement of the high control was set as 100% control. The IC50 values were calculated using the standard 4 parameter logistic regression formula. Calculation: [y=(a−d)/(1+(x/c)^B)+d], a=low value, d=high value; x=conc M; c=IC50 M; b=slope.

The target of another data set is T2, human MDR1 (P-gp) (Homo sapiens, UniProt P08183).
T2 construct: expressed in transfected cells; host or cells: MDCKII (Madin-Darby canine kidney)
T2 sequence (P08183 whole entry): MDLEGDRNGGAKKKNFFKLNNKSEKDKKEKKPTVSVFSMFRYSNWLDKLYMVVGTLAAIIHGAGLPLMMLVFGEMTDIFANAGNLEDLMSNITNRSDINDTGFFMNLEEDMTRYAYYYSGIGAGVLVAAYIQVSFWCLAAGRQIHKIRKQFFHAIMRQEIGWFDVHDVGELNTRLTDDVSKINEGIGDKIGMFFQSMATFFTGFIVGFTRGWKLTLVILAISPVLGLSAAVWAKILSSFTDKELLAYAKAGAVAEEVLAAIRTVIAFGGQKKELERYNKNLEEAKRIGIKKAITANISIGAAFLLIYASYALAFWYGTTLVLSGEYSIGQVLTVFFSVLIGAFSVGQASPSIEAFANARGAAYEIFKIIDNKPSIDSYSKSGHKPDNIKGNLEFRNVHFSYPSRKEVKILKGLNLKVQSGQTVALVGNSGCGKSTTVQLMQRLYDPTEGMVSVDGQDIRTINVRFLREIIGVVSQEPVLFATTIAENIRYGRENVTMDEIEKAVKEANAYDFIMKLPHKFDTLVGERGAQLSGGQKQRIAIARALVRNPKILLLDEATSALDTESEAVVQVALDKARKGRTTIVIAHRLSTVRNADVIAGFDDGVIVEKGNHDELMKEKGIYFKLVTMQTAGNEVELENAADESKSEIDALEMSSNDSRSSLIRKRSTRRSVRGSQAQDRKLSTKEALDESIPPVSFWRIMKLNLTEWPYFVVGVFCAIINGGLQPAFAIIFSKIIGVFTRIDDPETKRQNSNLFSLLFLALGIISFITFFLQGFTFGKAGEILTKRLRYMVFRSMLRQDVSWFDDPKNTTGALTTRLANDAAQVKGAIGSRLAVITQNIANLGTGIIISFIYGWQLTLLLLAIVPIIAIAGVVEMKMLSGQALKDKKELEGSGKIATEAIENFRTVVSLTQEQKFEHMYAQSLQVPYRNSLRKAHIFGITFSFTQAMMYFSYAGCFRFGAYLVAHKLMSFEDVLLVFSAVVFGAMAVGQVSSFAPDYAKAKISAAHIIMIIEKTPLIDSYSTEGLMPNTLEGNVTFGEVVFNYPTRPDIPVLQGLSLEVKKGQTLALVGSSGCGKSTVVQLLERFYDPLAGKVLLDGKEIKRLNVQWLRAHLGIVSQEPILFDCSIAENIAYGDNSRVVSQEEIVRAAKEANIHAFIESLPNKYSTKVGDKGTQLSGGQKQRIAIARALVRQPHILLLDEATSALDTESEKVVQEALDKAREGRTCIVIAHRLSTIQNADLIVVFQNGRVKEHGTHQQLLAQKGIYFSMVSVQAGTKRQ
The experiment in a line: MDCK assay MDR-1 (p-GP) permeability. The data set is classed as in vitro ADME. The conditions noted are these: dog, MDCK-MDR1 monolayers; for efflux ratio at 2 h: pH 7.4, Papp (b-a)/Papp (a-b); for Papp A→B at 2 h: apical-to-basal, pH 7.4, 1 or 10 μM. As to the method:
The MDCK assays provide information on the potential of a compound to pass the blood brain barrier. Permeability measurements across polarized, confluent MDCK-MDR1 cell monolayers grown on permeable filter supports are used as an in vitro absorption model: apparent permeability coefficients (PE) of the compounds across the MDCK-MDR1 cell monolayers are measured (pH 7.4, 37° C.) in apical-to-basal (AB) and basal-to-apical (BA) transport direction. The AB permeability (PEAB) represents drug absorption from the blood into the brain and the BA permeability (PEBA) drug efflux from the brain back into the blood via both, passive permeability as well as active transport mechanisms mediated by efflux and uptake transporters that are expressed on the MDCK-MDR1 cells, predominantly by the overexpressed human MDR1. Identical or similar permeabilities in both transport directions indicate passive permeation, vectorial permeability points to additional active transport mechanisms. Higher PEBA than PEAB (PEBA/PEAB>5) indicates the involvement of active efflux mediated by MDR1, which might compromise the goal to achieve sufficient brain exposure. Therefore, this assay provides valuable support for selection of compounds applicable for further in vivo testing. High permeability not limited by efflux at the blood brain barrier is a favourable characteristic for compounds that are to be used for drugs acting primarily in the CNS. Consequently, to ensure high permeability at the blood brain barrier, it is highly preferred to minimize the efflux (efflux<5) at MDR1 transporter.
Apparent permeability coefficients (Papp) of the compounds across the MDCK-MDR1 monolayers (MDCKII cells transfected with human MDR1 cDNA expression plasmid) are measured in apical-to-basal (AB) and basal-to-apical (BA) direction.
MDCK-MDR1 cells (6×10^5 cells/cm^2) are seeded on filter inserts (Corning, Transwell, polycarbonate, 0.4 μm pore size) and cultured for 9 to 10 days. Compounds dissolved in DMSO stock solution (1-20 mM) are diluted with HTP-4 aqueous buffer (128.13 mM NaCl, 5.36 mM KCl, 1 mM MgSO4, 1.8 mM CaCl2), 4.17 mM NaHCO3, 1.19 mM Na2HPO4, 0.41 mM NaH2PO4, 15 mM HEPES, 20 mM glucose, pH 7.4) supplemented with 0.25% BSA to prepare the transport solutions (final concentration: 1 or 10 μM, final DMSO <=0.5%). The transport solution is applied to the apical or basolateral donor side for measuring A-B or B-A permeability, respectively. The receiver side contains HTP-4 buffer supplemented with 0.25% BSA. Samples are collected at the start and end of experiment from the donor and at various time intervals for up to 2 hours also from the receiver side for concentration measurement by HPLC-MS/MS.
Sampled receiver volumes are replaced with fresh receiver solution. Efflux ratio is calculated dividing the Papp (b-a) values by the Papp (a-b) values.

Data set [1] in a line: Metabolic stability in human liver microsomes. The data set is classed as in vitro ADME. The settings on record: pooled human liver microsomes, pH 7.6, 37° C., 1 mg/mL microsomal protein, 1 μM compound, NADPH 1 mM, read-out: Half-life - t½ human liver microsomes. From the text: Stability in human liver microsomes refers to the susceptibility of compounds to bio-transformation in the context of selecting and/or designing drugs with favorable pharmacokinetic properties. The primary site of metabolism for many drugs is the liver. Human liver microsomes contain the cytochrome P450s (CYPs), and thus represent a model system for studying drug metabolization in vitro. Enhanced stability in human liver microsomes is associated with several advantages, including increased bioavailability and adequate half-life, which can enable lower and less frequent dosing of patients. Thus, enhanced stability in human liver microsomes is a favorable characteristic for compounds that are to be used for drugs.
The metabolic degradation of the test compound was assayed at 37° C. with pooled human liver microsomes. The final incubation volume of […] per time point contains TRIS buffer pH 7.6 at room temperature (0.1 M), magnesium chloride (5 mM aqueous solution), microsomal protein (1 mg/mL for human) and the test compound at a final concentration of 1 μM. Following a short preincubation period at 37° C., the reactions were initiated by addition of betanicotinamide adenine dinucleotide phosphate, reduced form (NADPH, 1 mM), and terminated by transferring an aliquot into solvent after different time points. After centrifugation (10000 g, 5 min), an aliquot of the supernatant was assayed by LC-MS/MS for the amount of parent compound. The half-life was determined by the slope of the semi-logarithmic plot of the concentration-time profile.
(In general: Liver microsomes are a subcellular fraction often used to study metabolism.)

T1 sequence (Q13224 27-1484, other chains not shown): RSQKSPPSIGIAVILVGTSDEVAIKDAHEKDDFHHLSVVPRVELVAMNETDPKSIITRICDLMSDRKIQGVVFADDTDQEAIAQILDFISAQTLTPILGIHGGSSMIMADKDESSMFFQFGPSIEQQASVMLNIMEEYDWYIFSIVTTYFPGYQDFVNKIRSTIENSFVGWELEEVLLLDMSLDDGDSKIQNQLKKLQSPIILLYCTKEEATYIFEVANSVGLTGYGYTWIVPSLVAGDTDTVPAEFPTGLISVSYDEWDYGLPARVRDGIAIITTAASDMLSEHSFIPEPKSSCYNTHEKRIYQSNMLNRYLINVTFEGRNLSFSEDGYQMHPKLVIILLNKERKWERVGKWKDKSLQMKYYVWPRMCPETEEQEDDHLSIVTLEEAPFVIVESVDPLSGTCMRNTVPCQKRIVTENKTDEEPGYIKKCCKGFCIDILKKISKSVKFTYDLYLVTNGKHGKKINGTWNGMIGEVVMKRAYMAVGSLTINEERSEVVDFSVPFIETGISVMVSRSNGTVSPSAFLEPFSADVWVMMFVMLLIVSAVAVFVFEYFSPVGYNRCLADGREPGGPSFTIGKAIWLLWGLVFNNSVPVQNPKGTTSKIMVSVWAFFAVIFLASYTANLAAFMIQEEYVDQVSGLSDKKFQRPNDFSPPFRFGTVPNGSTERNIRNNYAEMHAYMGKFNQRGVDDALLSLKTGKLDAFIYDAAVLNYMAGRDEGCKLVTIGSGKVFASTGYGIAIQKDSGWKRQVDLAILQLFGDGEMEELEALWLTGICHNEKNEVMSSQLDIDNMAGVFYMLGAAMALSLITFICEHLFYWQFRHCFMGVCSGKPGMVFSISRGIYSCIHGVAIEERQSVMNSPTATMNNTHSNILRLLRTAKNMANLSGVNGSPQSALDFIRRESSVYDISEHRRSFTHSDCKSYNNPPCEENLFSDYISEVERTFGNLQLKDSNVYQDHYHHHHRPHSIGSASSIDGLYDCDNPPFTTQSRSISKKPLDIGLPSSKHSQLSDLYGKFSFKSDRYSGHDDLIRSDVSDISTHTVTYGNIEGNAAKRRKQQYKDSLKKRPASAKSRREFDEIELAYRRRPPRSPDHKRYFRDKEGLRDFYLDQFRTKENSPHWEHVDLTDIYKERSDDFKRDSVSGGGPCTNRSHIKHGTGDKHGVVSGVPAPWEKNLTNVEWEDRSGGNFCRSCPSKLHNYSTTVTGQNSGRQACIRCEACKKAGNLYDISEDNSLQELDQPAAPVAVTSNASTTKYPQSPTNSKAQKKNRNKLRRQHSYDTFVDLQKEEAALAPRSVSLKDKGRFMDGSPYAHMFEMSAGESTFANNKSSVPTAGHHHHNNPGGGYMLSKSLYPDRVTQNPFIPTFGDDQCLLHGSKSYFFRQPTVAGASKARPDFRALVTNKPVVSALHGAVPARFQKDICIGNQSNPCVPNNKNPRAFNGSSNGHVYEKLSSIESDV

For `Cc1ccc(COC(=O)N2CCO[C@H](c3nc4nccnc4[nH]3)C2)c(F)c1` [Example 1], the IC50 – broadly, the concentration that gives 50% inhibition – at NMDA NR1/NR2B receptor was found to be 90 nM. At human MDR1 (P-gp), the efflux ratio (in general, the permeability from basolateral to apical divided by that in the opposite direction, in the common usage) at 2 h came out at 1.6 and the Papp A→B (commonly the apparent permeability from the apical to the basolateral side of a cell layer) at 2 h amounted to 33 ×10⁻⁶ cm/s. In addition, the half-life (in general, the time in which the quantity being followed falls by half) at 1 μM in data set [1] stood at 31.5 min.
Regarding `Cc1cccc(COC(=O)N2CCO[C@H](c3nc4nccnc4[nH]3)C2)c1F` [Example 3], the IC50 at NMDA NR1/NR2B receptor was determined as 725 nM. Moreover, on human MDR1 (P-gp), the efflux ratio at 2 h turned out to be 0.7 and the Papp A→B at 2 h was determined as 61 ×10⁻⁶ cm/s. The half-life at 1 μM in data set [1] was found to be 8 min.
In the same order, the values of `O=C(OCc1ccccc1F)N1CCO[C@H](c2nc3nccnc3[nH]2)C1` [Example 4] are 382 nM, 0.8, 57 ×10⁻⁶ cm/s and > 130 min.
On to `O=C(OCc1ccc(F)cc1F)N1CCO[C@H](c2nc3nccnc3[nH]2)C1` [Example 5], for which the IC50 on NMDA NR1/NR2B receptor was 477 nM. Besides, at human MDR1 (P-gp), the efflux ratio at 2 h amounted to 1.4 and the Papp A→B at 2 h came to 40 ×10⁻⁶ cm/s. Further, the half-life at 1 μM in data set [1] is > 130 min.
In the same order, the values of `O=C(OCc1ccc(F)cc1)N1CCO[C@H](c2nc3nccnc3[nH]2)C1` [Example 10] are 735 nM, 2.9, 23 ×10⁻⁶ cm/s and > 130 min.
The matching figures for `Cc1ccc(COC(=O)N2CCO[C@H](c3nc4nccnc4[nH]3)C2)cc1` [Example 12]: 210 nM, 1.8, 31 ×10⁻⁶ cm/s and 36 min.
